In patent US10913736B2 (UNIVERSITY OF WASHINGTON, priority 2014, dated 2021):
pEC50, pIC50: −log10 of the molar value. Values after ≈ are worked out from the molar mass of the structure shown. Values joined by “and” are separate entries in the source; they are usually repeats but may differ in a detail not shown here. Equal entries are not always repeated. Where two headings read alike, the source gives them in different places.

Legend:
S. aureus (ATCC 29213) = S. aureus (ATCC 29213) MIC/EC50; assay type: cell-based; details: Staphylococcus aureus, ATCC29213; S. aureus ATCC 29213; read-out: I) S. aureus (ATCC 29213) MIC/EC50, MIC
[1] = test system: S. aureus MRSA (ATCC 43300); assay: S. aureus MRSA (ATCC 43300) MIC/EC50; assay type: cell-based; details: Staphylococcus aureus; S. aureus MRSA ATCC 43300; read-out: J) S. aureus MRSA (ATCC 43300) MIC/EC50, MIC
T. cruzi = T. cruzi growth inhibition EC50; assay type: cell-based
L. amaz = L. amaz growth inhibition EC50; assay type: cell-based; details: read-out: F) L. amaz EC50
MetRS (S. aureus) = MetRS (S. aureus) (Staphylococcus aureus, UniProt Q5HII6); assay: biochemical; details: ATP depletion, Kinase-Glo; read-out: H) MetRS (S. aureus) ATP depletion assay using Kinase-Glo with modified cpd dilution method, IC50
Sequence of MetRS (S. aureus) (Q5HII6 whole entry): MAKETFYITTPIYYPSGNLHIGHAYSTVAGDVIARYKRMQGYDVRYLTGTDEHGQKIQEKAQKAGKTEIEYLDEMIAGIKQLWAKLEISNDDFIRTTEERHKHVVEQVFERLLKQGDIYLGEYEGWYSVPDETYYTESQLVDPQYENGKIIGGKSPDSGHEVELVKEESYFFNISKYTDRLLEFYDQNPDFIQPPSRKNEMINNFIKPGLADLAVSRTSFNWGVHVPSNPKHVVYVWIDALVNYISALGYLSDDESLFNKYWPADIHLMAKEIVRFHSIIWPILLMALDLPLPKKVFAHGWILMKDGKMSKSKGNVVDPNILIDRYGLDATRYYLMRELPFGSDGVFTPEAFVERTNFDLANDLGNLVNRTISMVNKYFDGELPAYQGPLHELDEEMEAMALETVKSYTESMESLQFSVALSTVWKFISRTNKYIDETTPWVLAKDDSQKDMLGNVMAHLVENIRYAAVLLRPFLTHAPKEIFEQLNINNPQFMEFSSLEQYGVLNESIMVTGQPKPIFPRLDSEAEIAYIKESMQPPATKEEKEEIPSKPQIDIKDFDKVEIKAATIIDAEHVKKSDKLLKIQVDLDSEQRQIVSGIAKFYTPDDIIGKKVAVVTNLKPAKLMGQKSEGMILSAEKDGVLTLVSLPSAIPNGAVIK

MetRS (T. brucei) = MetRS (T. brucei) (Trypanosoma brucei brucei, UniProt Q38C91); assay: MetRS (T. brucei) ATP depletion assay using Kinase-Glo; assay type: biochemical
Sequence of MetRS (T. brucei) (Q38C91 entry or part of it): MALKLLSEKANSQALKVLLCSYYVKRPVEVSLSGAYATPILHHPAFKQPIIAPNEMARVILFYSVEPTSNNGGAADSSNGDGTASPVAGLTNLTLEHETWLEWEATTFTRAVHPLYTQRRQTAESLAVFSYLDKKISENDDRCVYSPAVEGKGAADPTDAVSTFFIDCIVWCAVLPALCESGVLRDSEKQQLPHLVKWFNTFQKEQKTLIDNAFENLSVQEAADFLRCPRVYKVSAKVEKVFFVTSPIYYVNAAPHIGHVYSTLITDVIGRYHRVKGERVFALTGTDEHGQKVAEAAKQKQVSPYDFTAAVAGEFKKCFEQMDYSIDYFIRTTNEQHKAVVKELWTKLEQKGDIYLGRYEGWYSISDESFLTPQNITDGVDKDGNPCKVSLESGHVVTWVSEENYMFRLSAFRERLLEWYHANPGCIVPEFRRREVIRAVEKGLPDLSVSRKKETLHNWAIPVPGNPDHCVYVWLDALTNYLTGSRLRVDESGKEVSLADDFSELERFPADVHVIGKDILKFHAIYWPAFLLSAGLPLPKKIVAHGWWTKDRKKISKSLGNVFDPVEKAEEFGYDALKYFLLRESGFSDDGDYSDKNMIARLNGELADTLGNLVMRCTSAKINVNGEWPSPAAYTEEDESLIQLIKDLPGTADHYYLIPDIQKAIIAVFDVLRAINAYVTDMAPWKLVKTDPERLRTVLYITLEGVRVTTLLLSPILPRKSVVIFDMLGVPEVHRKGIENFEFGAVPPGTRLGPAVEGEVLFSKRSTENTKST

T. brucei = assay: Growth inhibition assay of T. brucei cell cultures (Alamar Blue, 48 h); assay type: cell-based
E. faecalis (ATCC 29212) = E. faecalis (ATCC 29212) MIC/EC50; assay type: cell-based
E. faecium (ATCC 51559) = E. faecium (ATCC 51559) MIC/EC50; assay type: cell-based
MetRS (Giardia) = MetRS (Giardia) (Giardia intestinalis, UniProt A8BY75); assay: biochemical; details: read-out: D) MetRS (Giardia) aminoacylation assay with modified cpd dilution method IC50
Sequence of MetRS (Giardia) (A8BY75 entry or part of it): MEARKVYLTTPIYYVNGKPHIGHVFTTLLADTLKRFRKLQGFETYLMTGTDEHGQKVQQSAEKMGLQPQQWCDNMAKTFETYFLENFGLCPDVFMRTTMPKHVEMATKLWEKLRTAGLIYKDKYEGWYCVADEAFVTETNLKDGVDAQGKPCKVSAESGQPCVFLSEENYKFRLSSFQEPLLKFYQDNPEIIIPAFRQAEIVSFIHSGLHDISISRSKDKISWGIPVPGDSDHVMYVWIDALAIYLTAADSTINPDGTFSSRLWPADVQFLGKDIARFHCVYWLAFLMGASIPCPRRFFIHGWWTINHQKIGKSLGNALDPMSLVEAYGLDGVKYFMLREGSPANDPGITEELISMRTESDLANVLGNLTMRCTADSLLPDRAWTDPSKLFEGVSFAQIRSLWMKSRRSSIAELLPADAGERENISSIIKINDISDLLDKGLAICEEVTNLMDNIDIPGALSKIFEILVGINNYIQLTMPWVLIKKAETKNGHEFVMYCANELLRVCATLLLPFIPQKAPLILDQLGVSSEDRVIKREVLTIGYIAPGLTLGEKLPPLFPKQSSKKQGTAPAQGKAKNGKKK

[2] = test system: Giardia intestinalis (ATCC 50580); assay: Giardia intestinalis (ATCC 50580) growth inhibition EC50; assay type: cell-based
[3] = Trypanosoma cruzi; read-out: C) T. cruzi EC50
[4] = Trypanosoma brucei; read-out: B) T. brucei EC50
[5] = Giardia duodenalis, ATCC50580; read-out: E) Giardia intestinalis (ATCC 50580) EC50

C[C@@H](CNCc1cc(Cl)cc(Cl)c1)CNc1nc2nc(F)ccc2[nH]1 [Compound 1673, [(3,5-dichlorophenyl)methyl][(2S)-3-({5-fluoro-3H-imidazo[4,5-b]pyridin-2-yl}amino)-2-methylpropyl]amine]
MIC (S. aureus (ATCC 29213)): 5 µg/mL (≈ 13.1 µM)
MIC [1]: 5 µg/mL (≈ 13.1 µM)
pEC50 (T. cruzi; [3]): 5.81
pEC50 (L. amaz): 5.10 and 5.24 and 5.08
pIC50 (MetRS (S. aureus)): 6.95
pIC50 (MetRS (T. brucei)): 7.96

O=C(Cc1cc(Cl)cc(Cl)c1)N1CCCC(c2nc3nc(Cl)ccc3[nH]2)C1 (stereo not shown) [Compound 1762, 1-(3-(5-chloro-1H-imidazo[4,5-b]pyridin-2-yl)piperidin-1-yl)-2-(3,5-dichlorophenyl)ethanone]
MIC (S. aureus (ATCC 29213)): > 10 µg/mL
MIC [1]: > 10 µg/mL
pEC50 (T. brucei; [4]): 5.98
pIC50 (MetRS (S. aureus)): 5.54
pIC50 (MetRS (T. brucei)): 7.55

Fc1ccc2nc(NCCCN[C@H]3CCOc4c(Cl)cc(Cl)cc43)[nH]c2n1 [Compound 1711, (4S)-6,8-dichloro-N-[3-({5-fluoro-3H-imidazo[4,5-b]pyridin-2-yl}amino)propyl]-3,4-dihydro-2H-1-benzopyran-4-amine]
K) E. faecalis (ATCC 29212) MIC/EC50, MIC (ug/ml) (E. faecalis (ATCC 29212)): >10, >10 ug/ml
pEC50 (T. brucei; [4]): 5.55
pIC50 (MetRS (S. aureus)): 6.43
L) E. faecium (ATCC 51559) MIC/EC50, MIC (E. faecium (ATCC 51559)): >10 µg/mL
pIC50 (MetRS (T. brucei)): 6.12

Fc1ccc2nc(NCCCN[C@@H]3CCOc4c(Cl)cc(Cl)cc43)[nH]c2n1 [Compound 1709, (4R)-6,8-dichloro-N-[3-({5-fluoro-3H-imidazo[4,5-b]pyridin-2-yl}amino)propyl]-3,4-dihydro-2H-1-benzopyran-4-amine]
pEC50 (T. cruzi; [3]): < 8.34
pEC50 (T. cruzi; read-out: C) T. cruzi EC50): 8.30
pIC50 (MetRS (Giardia)): 8.70
pEC50 (L. amaz): 5.89 and 5.95
pEC50 [2, 5]: 6.18
pEC50 ([2]; read-out: E) Giardia intestinalis (ATCC 50580) EC50): 6.31
pIC50 (MetRS (S. aureus)): 7.72
L) E. faecium (ATCC 51559) MIC/EC50, MIC (E. faecium (ATCC 51559)): >0.04 µg/mL
pIC50 (MetRS (T. brucei)): 8.10

O=C(Cc1cc(Cl)cc(Cl)c1)N1CCCC(c2nc3cc(Cl)ccc3[nH]2)C1 (stereo not shown) [Compound 1734, 1-(3-(5-chloro-1H-benzo[d]imidazol-2-yl)piperidin-1-yl)-2-(3,5-dichlorophenyl) ethanone]
MIC (S. aureus (ATCC 29213)): > 10 µg/mL
MIC [1]: > 10 µg/mL
pEC50 (T. cruzi; [3]): 5.31
pEC50 (T. brucei; [4]): 5.85
pIC50 (MetRS (S. aureus)): 5.61
pIC50 (MetRS (T. brucei)): 7.22

O=C(CCOc1ccc(Cl)cc1Cl)NCc1nc2ccccc2[nH]1 [Compound 1683, N-(1H-1,3-benzodiazol-2-ylmethyl)-3-(2,4-dichlorophenoxy)propanamide]
pEC50 (T. cruzi; [3]): < 5.00
pIC50 (MetRS (Giardia)): < 6.00
pEC50 (L. amaz): < 6.00
pEC50 [2, 5]: < 5.70
pEC50 (T. brucei; [4]): 5.05
pIC50 (MetRS (T. brucei)): 7.13

C[C@@H](CNCc1cc(Cl)cc(Cl)c1)CNc1nc2cccnc2[nH]1 [Compound 1655, (S)-N1-(3,5-dichlorobenzyl)-N3-(1H-imidazo[4,5-b]pyridin-2-yl)-2-methylpropane-1,3-diamine]
MIC (S. aureus (ATCC 29213)): 10 µg/mL (≈ 27.5 µM)
MIC [1]: 10 µg/mL (≈ 27.5 µM)
pEC50 (T. cruzi; [3]): 6.15
pEC50 (L. amaz): 5.17
pEC50 (T. brucei; [4]): 7.95
pEC50 (T. brucei; read-out: B) T. brucei EC50): 8.10
pIC50 (MetRS (S. aureus)): 6.77
pIC50 (MetRS (T. brucei)): 7.37

O=C(/C=C/Oc1ccc(Cl)cc1Cl)NCc1nc2ccccc2[nH]1 [Compound 1729, (2E)-N-(1H-1,3-benzodiazol-2-ylmethyl)-3-(2,4-dichlorophenoxy)prop-2-enamide]
pEC50 (T. cruzi; [3]): < 5.30
pEC50 (L. amaz): < 6.00
pEC50 (T. brucei; [4]): 6.92
pIC50 (MetRS (S. aureus)): 7.57
L) E. faecium (ATCC 51559) MIC/EC50, MIC (E. faecium (ATCC 51559)): >10 µg/mL
pIC50 (MetRS (T. brucei)): 7.77

Clc1cc(Cl)cc(Cn2cc(Cc3nc4ccccc4[nH]3)nn2)c1 [Compound 1753, 2-({1-[(3,5-dichlorophenyl)methyl]-1H-1,2,3-triazol-4-yl}methyl)-1H-1,3-benzodiazole]
pEC50 (T. cruzi; [3]): < 5.30
pEC50 (T. brucei; [4]): 5.63
pIC50 (MetRS (S. aureus)): 5.96
L) E. faecium (ATCC 51559) MIC/EC50, MIC (E. faecium (ATCC 51559)): >10 µg/mL
pIC50 (MetRS (T. brucei)): 7.14

O=C(NCc1nc2ccccc2[nH]1)OCCc1ccc(Cl)cc1Cl [Compound 1701, 2-(2,4-dichlorophenyl)ethyl N-(1H-1,3-benzodiazol-2-ylmethyl)carbamate]
MIC (S. aureus (ATCC 29213)): > 10 µg/mL
MIC [1]: > 10 µg/mL
pEC50 (T. cruzi; [3]): 5.06
pEC50 (T. brucei; [4]): 5.89
pIC50 (MetRS (S. aureus)): 7.17
pIC50 (MetRS (T. brucei)): 8.30

O=C(Cc1cc(Cl)cc(Cl)c1)N1CCC[C@H](c2nc3cc(Cl)ccc3[nH]2)C1 [Compound 1758, (S)-1-(3-(5-chloro-1H-benzo[d]imidazol-2-yl)piperidin-1-yl)-2-(3,5-dichlorophenyl)ethanone]
MIC (S. aureus (ATCC 29213)): > 10 µg/mL
MIC [1]: > 10 µg/mL
pEC50 (T. brucei; [4]): 5.33
pIC50 (MetRS (S. aureus)): 5.98
pIC50 (MetRS (T. brucei)): 7.51

O=c1[nH]c(Cc2ccc(Cl)cc2Cl)cn1Cc1nc2ccccc2[nH]1 [Compound 1907, 3-((1H-benzo[d]imidazol-2-yl)methyl)-5-(2,4-dichlorobenzyl)-1H-imidazol-2(3H)-one]
pEC50 (T. cruzi; [3]): 5.12
pEC50 (L. amaz): < 6.00
pEC50 (T. brucei; [4]): 6.46
pIC50 (MetRS (S. aureus)): 7.27
pIC50 (MetRS (T. brucei)): 7.72

O=C(/C=C/Oc1ccc(Cl)cc1Cl)NCc1nc2ccc(F)nc2[nH]1 [Compound 1768, 3-(2,4-Dichloro-phenoxy)-N-(5-fluoro-3H-imidazo[4,5-b]pyridin-2-ylmethyl)-acrylamide]
MIC (S. aureus (ATCC 29213)): > 10 µg/mL
MIC [1]: > 10 µg/mL
pEC50 (T. cruzi; [3]): 5.77
pEC50 (L. amaz): < 6.00
pEC50 (T. brucei; [4]): 7.15
pIC50 (MetRS (S. aureus)): 7.52
pIC50 (MetRS (T. brucei)): 7.74

O=C(Cc1cc(Cl)cc(Cl)c1)N1CCCC(c2nc3nc(F)ccc3[nH]2)C1 (stereo not shown) [Compound 1761, 2-(3,5-dichlorophenyl)-1-(3-(5-fluoro-1H-imidazo[4,5-b]pyridin-2-yl)piperidin-1-yl)ethanone]
MIC (S. aureus (ATCC 29213)): > 10 µg/mL
MIC [1]: > 10 µg/mL
pEC50 (T. cruzi; [3]): < 5.30
pEC50 (T. brucei; [4]): 6.00
pIC50 (MetRS (S. aureus)): 5.72
pIC50 (MetRS (T. brucei)): 7.27

O=c1c(NCc2nc3ccccc3[nH]2)c(NCc2ccc(Cl)cc2Cl)c1=O [Compound 1769, 3-[(H-Benzoimidazol-2-ylmethyl)-amino]-4-(2,4-dichloro-benzylamino)-cyclobut-3-ene-1,2-dione]
MIC (S. aureus (ATCC 29213)): > 10 µg/mL
MIC [1]: > 10 µg/mL
pEC50 (T. cruzi; [3]): < 5.30
pEC50 (T. brucei; [4]): 5.97
pIC50 (MetRS (S. aureus)): 7.02
pIC50 (MetRS (T. brucei)): 7.96

CN(CCNCc1cc(Cl)cc(Cl)c1)c1nc2ccc(Cl)nc2[nH]1 [Compound 1893, N-(2-(3,5-dichlorobenzylamino)ethyl)-5-chloro-N-methyl-1H-imidazo[4,5-b]pyridin-2-amine]
pEC50 (T. cruzi; [3]): 6.47
pEC50 (L. amaz): 5.42
pEC50 (T. brucei; [4]): 7.83
pEC50 (T. brucei; read-out: B) T. brucei EC50): 7.55
pIC50 (MetRS (S. aureus)): 6.53
pIC50 (MetRS (T. brucei)): 8.10

Clc1cc(Cl)cc(CNCCc2nc3ccc(Cl)cc3[nH]2)c1 [Compound 1767, [2-(6-chloro-1H-1,3-benzodiazol-2-yl)ethyl][(3,5-dichlorophenyl)methyl]amine]
MIC (S. aureus (ATCC 29213)): > 10 µg/mL
MIC [1]: 10 µg/mL (≈ 28.2 µM)
pEC50 (T. cruzi; [3]): 5.53
pEC50 (T. brucei; [4]): 6.20
pIC50 (MetRS (S. aureus)): < 6.00
pIC50 (MetRS (T. brucei)): 7.29

N[C@@H](CC(=O)NCc1nc2ccccc2[nH]1)Cc1ccc(Cl)cc1Cl [Compound 1720, (R)—N-((1H-benzo[d]imidazol-2-yl)methyl)-3-amino-4-(2,4-dichlorophenyl)butanamide]
MIC (S. aureus (ATCC 29213)): > 10 µg/mL
MIC [1]: > 10 µg/mL
pEC50 (T. cruzi; [3]): 5.43
pEC50 (T. brucei; [4]): 6.07
pIC50 (MetRS (S. aureus)): 6.74
pIC50 (MetRS (T. brucei)): 7.15
